One may read the IC50 as the concentration needed to halve the response being measured.

The test has as its target T1, 1-deoxy-D-xylulose-5-phosphate reductoisomerase (DXR) (Escherichia coli, UniProt P45568).
T1 sequence (P45568 1-398): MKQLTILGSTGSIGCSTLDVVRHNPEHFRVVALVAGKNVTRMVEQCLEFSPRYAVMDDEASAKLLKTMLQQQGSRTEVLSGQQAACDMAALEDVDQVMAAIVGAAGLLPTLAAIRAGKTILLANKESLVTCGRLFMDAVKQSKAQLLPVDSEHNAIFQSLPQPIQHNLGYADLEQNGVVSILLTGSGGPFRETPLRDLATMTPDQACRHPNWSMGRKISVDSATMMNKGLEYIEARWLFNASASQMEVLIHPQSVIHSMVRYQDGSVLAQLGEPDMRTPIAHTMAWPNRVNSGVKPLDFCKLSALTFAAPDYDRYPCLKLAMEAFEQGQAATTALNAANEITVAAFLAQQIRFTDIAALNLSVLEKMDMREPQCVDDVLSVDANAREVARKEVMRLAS
Put plainly: recombinant enzyme assay, NADPH consumption at […] nm. The class given is biochemical.

`O=P(O)(O)CCCB(O)O` [compound 4, 3-Borono Propyl Phosphonic Acid]: the IC50 amounted to 128 ± 3 µM.

These data come from paper PMC6740193 (ACS Omega, 2019).
